Source: patent US20210395210A1, “INHIBITION OF BACTERIAL CHAPERONIN SYSTEMS” (THE TRUSTEES OF INDIANA UNIVERSITY, priority 2018, published 2021)
Like-named read-outs stand apart in the source and are kept apart here.

What was measured:
[1] = tested on: Klebsiella Pneumonia (ATCC 13883); experiment: Bacterial proliferation assay, K. pneumoniae; format: cell-based
Summary of the method: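 Klebsiella pneumoniae ATCC 13883 was cultured in Brain Heart Infusion medium supplemented with 25 mg/L Ca^2+ and 12.5 mg/L Mg^2+. Cells were diluted to OD600 0.017, and 30 μL was added to 384-well plates holding 0.5 μL compound in 20 μL media. Plates were incubated stagnantly at 37° C., and OD600 was read at 6-8 h to determine EC50.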

[2] = tested on: Enterobacter cloacae (ATCC 13047); experiment: Bacterial proliferation assay, E. cloacae; format: cell-based
Summary of the method: (§1)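 Cultures in BHI broth with 25 mg/L Ca2+ and 12.5 mg/L Mg2+ were diluted to OD600 0.017 and exposed to compounds in 384-well plates at 37 °C without shaking. OD600 was read at 6-8 h (S. aureus, E. cloacae, P. aeruginosa) or 24 h (A. baumannii). EC50 values were averaged over quadruplicates.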

[3] = tested on: Methicillin resistant S. aureus (MRSA) (ATCC BAA-44); experiment: Bacterial proliferation assay, MRSA; format: cell-based, Staphylococcus aureus
Summary of the method: as §1

[4] = tested on: Drug sensitive Staphylococcus aureus (ATCC 25923); experiment: Bacterial proliferation assay, drug sensitive S. aureus; format: cell-based
Summary of the method: as §1

[5] = tested on: Acinetobacter baumannii (ATCC 19606); experiment: Bacterial proliferation assay, A. baumannii; format: cell-based
Summary of the method: as §1

native MDH = target: T1, native MDH (Sus scrofa, UniProt P00346); experiment: Counter-screen for inhibition of native MDH enzymatic activity; format: biochemical, pig
T1 construct: soluble pig heart MDH from Roche, product #10127248001; purchased Roche 10127248001; host or cells: pig heart
T1 sequence (P00346 25-338): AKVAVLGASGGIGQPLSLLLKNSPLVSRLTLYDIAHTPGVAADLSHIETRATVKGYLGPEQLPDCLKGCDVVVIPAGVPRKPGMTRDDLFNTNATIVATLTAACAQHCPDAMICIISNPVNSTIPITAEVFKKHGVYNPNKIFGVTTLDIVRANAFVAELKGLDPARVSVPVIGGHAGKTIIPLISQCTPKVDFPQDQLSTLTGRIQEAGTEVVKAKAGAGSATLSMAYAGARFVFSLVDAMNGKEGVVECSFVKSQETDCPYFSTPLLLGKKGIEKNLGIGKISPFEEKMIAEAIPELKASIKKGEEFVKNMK
Summary of the method: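 Compounds were added only after GroEL/ES-mediated MDH refolding (45 min, 37 °C) had been EDTA-quenched, so only refolded MDH activity is probed.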

[6] = tested on: Enterococcus faecium (ATCC 19434); experiment: Bacterial proliferation assay, E. faecium; format: cell-based
Summary of the method: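 Enterococcus faecium ATCC 19434 was grown overnight at 37° C. in BHI broth supplemented with 25 mg/L Ca^2+ and 12.5 mg/L Mg^2+, subcultured 1:5, and diluted to OD600 0.017. 30 μL portions went into 384-well plates holding compounds, sealed with oxygen-permeable membranes, and incubated stagnant at 37° C. OD600 was read at 24 h to give EC50.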

[7] = ATCC13883, OD600 at 6-8 h, read-out: Bacterial Proliferation EC50 K. pneumoniae
[8] = ATCC13883, log of EC50 (μM scale), with standard deviation, read-out: log(EC50) Bacterial Proliferation Assay K. pneumoniae (converted)
[9] = ATCC13047, OD600 at 6-8 h, read-out: Bacterial Proliferation EC50 E. cloacae
[10] = ATCC13047, log of EC50 (μM scale), with standard deviation, read-out: log(EC50) Bacterial Proliferation Assay E. cloacae (converted)
[11] = Staphylococcus aureus, MRSA, log of EC50 (μM scale), with standard deviation, read-out: log(EC50) Bacterial Proliferation Assay S. aureus Resistant (converted)
[12] = ATCC25923, OD600 at 6-8 h, read-out: Bacterial Proliferation EC50 S. aureus Sensitive
[13] = ATCC25923, log of EC50 (μM scale), with standard deviation, read-out: log(EC50) Bacterial Proliferation Assay S. aureus Sensitive (converted)
[14] = ATCC19606, OD600 at 24 h, read-out: Bacterial Proliferation EC50 A. baumannii
[15] = ATCC19606, log of EC50 (μM scale), with standard deviation, read-out: log(EC50) Bacterial Proliferation Assay A. baumannii (converted)
[16] = log of IC50 (μM scale), with standard deviation, read-out: log(IC50) Native MDH Reporter (converted)
[17] = read-out: Biochemical Assay IC50 Native MDH Reporter
[18] = ATCC19434, OD600 at 24 h, read-out: Bacterial Proliferation EC50 E. faecium
[19] = ATCC19434, log of EC50 (μM scale), with standard deviation, read-out: log(EC50) Bacterial Proliferation Assay C. faecium (converted)

For COc1ccc(Br)cc1C(=O)Nc1cccc(Cl)c1 [Compound 39, 5-Bromo-N-(3-chlorophenyl)-2-methoxybenzamide], the EC50 [1, 7] was greater than 100 µM, the EC50 [1, 8] was greater than 100 µM and the EC50 [2, 9] was greater than 100 µM. For the same compound, the EC50 [2, 10] was greater than 100 µM, the EC50 [3, 11] was greater than 100 µM and the EC50 [4, 12] was greater than 100 µM. It also gave an EC50 [4, 13] greater than 100 µM, an EC50 [5, 14] greater than 100 µM and an EC50 [5, 15] greater than 100 µM. It also gave an IC50 (native MDH; [16]) greater than 63.1 µM, an IC50 (native MDH; [17]) greater than 63 µM and an EC50 [6, 18] greater than 100 µM. The EC50 [6, 19] was greater than 100 µM.
COc1ccccc1C(=O)Nc1cccc(Cl)c1 [Compound 40, N-(3-Chlorophenyl)-2-methoxybenzamide] gave an EC50 [1, 7] greater than 100 µM, an EC50 [1, 8] greater than 100 µM and an EC50 [2, 9] greater than 100 µM. For the same compound, the EC50 [2, 10] was greater than 100 µM, the EC50 [3, 11] was greater than 100 µM and the EC50 [4, 12] was greater than 100 µM. The EC50 [4, 13] was greater than 100 µM, the EC50 [5, 14] was greater than 100 µM and the EC50 [5, 15] was greater than 100 µM. The IC50 (native MDH; [16]) was greater than 63.1 µM, the IC50 (native MDH; [17]) was greater than 63 µM and the EC50 [6, 18] was greater than 100 µM. For the same compound, the EC50 [6, 19] was greater than 100 µM.
COc1c(Br)cc(Br)cc1C(=O)Nc1ccccc1 [Compound 41, 3,5-Dibromo-2-methoxy-N-phenylbenzamide] gave an EC50 [1, 7] greater than 100 µM, an EC50 [1, 8] greater than 100 µM and an EC50 [2, 9] greater than 100 µM. The EC50 [2, 10] was greater than 100 µM, the EC50 [3, 11] was greater than 100 µM and the EC50 [4, 12] was greater than 100 µM. For the same compound, the EC50 [4, 13] was greater than 100 µM, the EC50 [5, 14] was greater than 100 µM and the EC50 [5, 15] was greater than 100 µM. For the same compound, the IC50 (native MDH; [16]) was greater than 63.1 µM, the IC50 (native MDH; [17]) was greater than 63 µM and the EC50 [6, 18] was greater than 100 µM. For the same compound, the EC50 [6, 19] was greater than 100 µM.
COc1c(Br)cccc1C(=O)Nc1ccccc1 [Compound 42, 3-Bromo-2-methoxy-N-phenylbenzamide] showed an EC50 [1, 7] greater than 100 µM, an EC50 [1, 8] greater than 100 µM and an EC50 [2, 9] greater than 100 µM. For the same compound, the EC50 [2, 10] was greater than 100 µM, the EC50 [3, 11] was greater than 100 µM and the EC50 [4, 12] was greater than 100 µM. For the same compound, the EC50 [4, 13] was greater than 100 µM, the EC50 [5, 14] was greater than 100 µM and the EC50 [5, 15] was greater than 100 µM. For the same compound, the IC50 (native MDH; [16]) was greater than 63.1 µM, the IC50 (native MDH; [17]) was greater than 63 µM and the EC50 [6, 18] was greater than 100 µM. The EC50 [6, 19] was greater than 100 µM.
For COc1ccc(Br)cc1C(=O)Nc1ccccc1 [Compound 43, 5-Bromo-2-methoxy-N-phenylbenzamide], the EC50 [1, 7] was greater than 100 µM, the EC50 [1, 8] was greater than 100 µM and the EC50 [2, 9] was greater than 100 µM. The EC50 [2, 10] was greater than 100 µM, the EC50 [3, 11] was greater than 100 µM and the EC50 [4, 12] was greater than 100 µM. For the same compound, the EC50 [4, 13] was greater than 100 µM, the EC50 [5, 14] was greater than 100 µM and the EC50 [5, 15] was greater than 100 µM. For the same compound, the IC50 (native MDH; [16]) was greater than 63.1 µM, the IC50 (native MDH; [17]) was greater than 63 µM and the EC50 [6, 18] was greater than 100 µM. The EC50 [6, 19] was greater than 100 µM.
In the case of COc1ccccc1C(=O)Nc1ccccc1 [Compound 44, 2-Methoxy-N-phenylbenzamide], the EC50 [1, 7] is reported as greater than 100 µM, the EC50 [1, 8] is reported as greater than 100 µM and the EC50 [2, 9] is reported as greater than 100 µM. It also gave an EC50 [2, 10] greater than 100 µM, an EC50 [3, 11] greater than 100 µM and an EC50 [4, 12] greater than 100 µM. It also gave an EC50 [4, 13] greater than 100 µM, an EC50 [5, 14] greater than 100 µM and an EC50 [5, 15] greater than 100 µM. The IC50 (native MDH; [16]) was greater than 63.1 µM, the IC50 (native MDH; [17]) was greater than 63 µM and the EC50 [6, 18] was greater than 100 µM. It also gave an EC50 [6, 19] greater than 100 µM.
With O=C(Nc1ccc(Oc2ccc(Cl)cc2)c(Cl)c1)c1cc(I)cc(I)c1O [Rafoxanide, rafoxanide, reference compound] the EC50 ([1]; ATCC13883, read-out: Bacterial Proliferation EC50 K. pneumoniae) was greater than 100 µM, the EC50 ([1]; ATCC13883, read-out: log(EC50) Bacterial Proliferation Assay K. pneumoniae (converted)) was greater than 100 µM and the EC50 ([2]; ATCC13047, read-out: Bacterial Proliferation EC50 E. cloacae) was 40 µM. For the same compound, the EC50 ([2]; ATCC13047, read-out: log(EC50) Bacterial Proliferation Assay E. cloacae (converted)) was 40.7 µM, the EC50 ([3]; MRSA, OD600 at 6-8 h, read-out: Bacterial Proliferation EC50 S. aureus Resistant) was 0.34 µM and the EC50 ([3]; Staphylococcus aureus, read-out: log(EC50) Bacterial Proliferation Assay S. aureus Resistant (converted)) was 0.347 µM. For the same compound, the EC50 ([4]; ATCC25923, read-out: Bacterial Proliferation EC50 S. aureus Sensitive) was 0.32 µM, the EC50 ([4]; ATCC25923, read-out: log(EC50) Bacterial Proliferation Assay S. aureus Sensitive (converted)) was 0.324 µM and the EC50 ([5]; ATCC19606, 24 h, read-out: Bacterial Proliferation EC50 A. baumannii) was 31 µM. For the same compound, the EC50 ([5]; ATCC19606, read-out: log(EC50) Bacterial Proliferation Assay A. baumannii (converted)) was 30.9 µM, the “log(IC50) Native MDH Reporter” value (native MDH; log of IC50 (μM scale), with standard deviation) was 1.40 ± 0.34 and the EC50 ([6]; ATCC19434, 24 h, read-out: Bacterial Proliferation EC50 E. faecium) was 0.99 µM. It also gave an EC50 ([6]; ATCC19434, read-out: log(EC50) Bacterial Proliferation Assay C. faecium (converted)) of 1 µM.
